Measured values: patent publication US20160368870A1, “OLEFIN SUBSTITUTED OXINDOLES HAVING AMPK ACTIVITY” (BOEHRINGER INGELHEIM INTERNATIONAL GMBH, priority 2013, published 2016)

Columns and labels:
AMPK beta 2 = biological target: T1, AMPK beta 2 (Mus musculus, UniProt Q6PAM0+Q8BRK8); assay: in-cell-ELISA for phospho-ACC, Activity beta 2; type: cell-based; settings: 2 h, serum free DMEM, percentage activation over vehicle control, cell line not given (HepG2 or C2C12 myotubes)
T1 construct: fully differentiated myotubes (C2C12 cells) grown in 96 well plate; endogenous in cells; host or cells: C2C12 myotubes
T1 sequence (Q6PAM0 whole entry): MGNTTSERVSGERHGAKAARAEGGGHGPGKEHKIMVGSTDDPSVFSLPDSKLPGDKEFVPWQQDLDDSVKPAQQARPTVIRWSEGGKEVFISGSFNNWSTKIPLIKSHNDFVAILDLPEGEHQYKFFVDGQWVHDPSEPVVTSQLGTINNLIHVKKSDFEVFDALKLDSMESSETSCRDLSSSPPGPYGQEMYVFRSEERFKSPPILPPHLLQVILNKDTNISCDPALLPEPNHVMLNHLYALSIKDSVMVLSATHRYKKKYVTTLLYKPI
T1 sequence (Q8BRK8 whole entry): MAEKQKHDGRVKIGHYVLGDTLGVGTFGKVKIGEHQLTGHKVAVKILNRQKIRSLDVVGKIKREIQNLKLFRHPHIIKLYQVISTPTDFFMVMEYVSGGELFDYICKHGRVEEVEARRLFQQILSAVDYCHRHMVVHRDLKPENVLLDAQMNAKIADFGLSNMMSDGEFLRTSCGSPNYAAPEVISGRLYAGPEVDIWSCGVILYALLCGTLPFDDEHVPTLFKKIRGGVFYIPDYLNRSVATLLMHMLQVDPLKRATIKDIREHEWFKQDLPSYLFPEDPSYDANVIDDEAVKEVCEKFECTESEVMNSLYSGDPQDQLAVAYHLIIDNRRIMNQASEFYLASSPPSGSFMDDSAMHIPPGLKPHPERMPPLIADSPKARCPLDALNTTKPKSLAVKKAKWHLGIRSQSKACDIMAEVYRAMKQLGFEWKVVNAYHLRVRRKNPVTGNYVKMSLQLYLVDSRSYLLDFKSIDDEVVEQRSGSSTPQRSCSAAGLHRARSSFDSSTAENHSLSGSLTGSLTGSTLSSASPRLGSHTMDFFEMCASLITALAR
T1 sequence (O54950 whole entry partner): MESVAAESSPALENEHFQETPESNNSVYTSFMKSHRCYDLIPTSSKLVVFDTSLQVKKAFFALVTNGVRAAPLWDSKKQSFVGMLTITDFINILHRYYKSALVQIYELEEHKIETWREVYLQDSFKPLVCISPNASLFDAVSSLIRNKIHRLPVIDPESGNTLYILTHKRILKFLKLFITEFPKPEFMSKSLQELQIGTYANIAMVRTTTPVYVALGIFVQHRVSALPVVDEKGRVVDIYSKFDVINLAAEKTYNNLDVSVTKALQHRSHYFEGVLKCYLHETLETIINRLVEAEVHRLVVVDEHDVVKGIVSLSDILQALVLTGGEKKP
Method: (§1) Activation of AMPK by various compounds were measured using in-cell-ELISA for phospho-ACC (Acetyl-CoA carboxylase 1) in HepG2 cells (liver) and fully differentiated myotubes (C2C12 cells) grown in 96 well plate. Cells were treated with 1 μM of the molecule for 2 h in serum free DMEM media. After methanol fixation, cells were blocked with BSA followed by addition of anti-phospho ACC antibody (Cell Signaling) and HRP conjugated secondary antibody. Absorbance values taken at 450 nm and were normalized with total DNA (Hoechest stain). Results were expressed as percentage activation over vehicle control.

AMPK beta 1 = biological target: T2, AMPK beta 1 (Homo sapiens, UniProt Q13131+Q9Y478); assay: in-cell-ELISA for phospho-ACC, Activity beta 1; type: cell-based; settings: 2 h, serum free DMEM, percentage activation over vehicle control, cell line not given (HepG2 or C2C12 myotubes)
T2 construct: in-cell-ELISA for phospho-ACC (Acetyl-CoA carboxylase 1) in HepG2 cells (liver); endogenous in cells; host or cells: HepG2
T2 sequence (Q9Y478 whole entry): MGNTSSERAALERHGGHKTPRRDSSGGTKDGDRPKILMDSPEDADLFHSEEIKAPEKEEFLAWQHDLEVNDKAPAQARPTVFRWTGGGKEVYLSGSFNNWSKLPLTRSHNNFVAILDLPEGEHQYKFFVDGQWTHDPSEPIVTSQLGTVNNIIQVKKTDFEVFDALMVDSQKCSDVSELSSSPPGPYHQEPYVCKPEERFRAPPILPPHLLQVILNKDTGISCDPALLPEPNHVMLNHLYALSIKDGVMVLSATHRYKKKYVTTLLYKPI
T2 sequence (Q13131 whole entry): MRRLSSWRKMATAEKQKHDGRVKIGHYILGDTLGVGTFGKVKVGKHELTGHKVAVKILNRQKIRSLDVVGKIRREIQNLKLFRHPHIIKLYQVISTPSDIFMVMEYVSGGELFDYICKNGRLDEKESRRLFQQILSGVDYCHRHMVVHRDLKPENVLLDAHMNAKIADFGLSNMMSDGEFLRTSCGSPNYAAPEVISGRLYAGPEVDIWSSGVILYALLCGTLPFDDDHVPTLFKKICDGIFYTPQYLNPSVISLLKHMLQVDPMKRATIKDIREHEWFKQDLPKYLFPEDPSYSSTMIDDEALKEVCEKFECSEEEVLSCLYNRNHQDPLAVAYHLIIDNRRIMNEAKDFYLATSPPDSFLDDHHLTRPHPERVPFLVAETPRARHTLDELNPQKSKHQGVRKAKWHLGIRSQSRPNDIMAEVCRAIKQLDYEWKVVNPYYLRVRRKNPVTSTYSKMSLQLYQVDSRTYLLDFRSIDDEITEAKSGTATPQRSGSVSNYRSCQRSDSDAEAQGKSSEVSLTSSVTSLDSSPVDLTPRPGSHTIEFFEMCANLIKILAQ
T2 sequence (P54619 whole entry partner): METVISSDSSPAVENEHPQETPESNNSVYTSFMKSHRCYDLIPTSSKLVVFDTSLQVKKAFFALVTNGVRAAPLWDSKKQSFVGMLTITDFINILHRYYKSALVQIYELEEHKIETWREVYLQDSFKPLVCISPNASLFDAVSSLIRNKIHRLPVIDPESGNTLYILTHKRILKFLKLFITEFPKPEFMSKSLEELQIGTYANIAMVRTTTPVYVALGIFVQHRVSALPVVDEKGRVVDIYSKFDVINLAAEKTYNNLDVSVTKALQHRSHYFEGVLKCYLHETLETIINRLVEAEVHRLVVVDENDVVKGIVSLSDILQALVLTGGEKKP
Method: as §1

[1] = solubility of sodium salt in water; type: physicochemical; settings: read-out: soluble in water
Method: To a stirred solution of acid (compound 67, 1 mmol) in EtOH (25v) was added 0.5M NaOH solution (1 mmol) drop-wise at 30° C. followed by 10V of water. After 30 minutes, excess of ethanol was removed under reduced pressure at 35 deg C. and repeatedly distilled with ethanol two or three times until free solid obtained. The solid was further washed with n-Hexane to obtain compound 67 Compound 67 is soluble in 1 mg/mL water.
The protocol for synthesizing compound 67 was followed to prepare compound 68. Compound 68 is also soluble in 1 mg/mL water.

| Activity beta 2 (at 1 uM) (AMPK beta 2) | activation at 1 µM (AMPK beta 1) [%] | solubility [1] [µg/mL] | SMILES |
| --- | --- | --- | --- |
| *** (*** >40) | > 40 |  | Cc1ccc(C=C2C(=O)Nc3cc(Cl)c(-c4ccc(-c5ccc(S(C)(=O)=O)cc5)cc4)cc32)cc1CC(=O)O [Example 48] |
|  | > 40 | ≥ 1000 | O=C(O)Cc1ccc(/C=C2\C(=O)Nc3cc(Cl)c(-c4ccc(-c5ccc(-n6cncn6)cc5)cc4)cc32)cc1 [Example 68, sodium {4-[(E/Z)-{6-chloro-2-oxo-5-[4′-(1H-1,2,4-triazol-1-yl)biphenyl-4-yl]-1,2-dihydro-3H-indol-3-ylidene}methyl]phenyl}acetate] |
| *** (*** >40) | > 40 |  | COc1ccc(C=C2C(=O)Nc3cc(Cl)c(-c4ccc(-c5ccc(-n6cncn6)cc5)cc4)cc32)cc1CC(=O)O [Example 51] |
|  | > 40 | ≥ 1000 | COc1ccc(/C=C2\C(=O)Nc3cc(Cl)c(-c4ccc(-c5ccc(-n6cncn6)cc5)cc4)cc32)cc1CC(=O)[O-].[Na+] [Example 67, sodium {5-[(E/Z)-{6-chloro-2-oxo-5-[4′-(1H-1,2,4-triazol-1-yl)biphenyl-4-yl]-1,2-dihydro-3H-indol-3-ylidene}methyl]-2-methoxyphenyl}acetate] |
